SMILES strings stand for the structures. Bounds are passed on as bounds.

Usually IC50 stands for the concentration that inhibits the measured activity by half.

The assay concerns the target T1, human LMPTP-A (Homo sapiens, UniProt P24666).
T1 sequence (P24666 1-158): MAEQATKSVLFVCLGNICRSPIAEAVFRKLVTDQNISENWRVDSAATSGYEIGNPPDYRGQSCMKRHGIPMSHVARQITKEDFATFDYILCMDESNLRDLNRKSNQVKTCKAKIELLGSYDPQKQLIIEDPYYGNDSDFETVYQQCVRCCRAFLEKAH
The assay can be described thus: Enzyme Assay of Inhibition of LMPTP-A. The assay is classed as biochemical. As to conditions: phosphatase assay, OMFP or pNPP substrate, 50 mM Bis-Tris pH 6.0, 37° C. Here is the method: Example B-1: Enzyme Assay of Inhibition of LMPTP-A
Phosphatase assays were performed in buffer containing 50 mM Bis-Tris, pH 6.0, 1 mM DTT and 0.01% Triton X-100 at 37° C. For assays conducted with 3-O-methylfluorescein phosphate (OMFP) as substrate, fluorescence was monitored continuously at λex=485 and λem=525 nm. For assays conducted with para-nitrophenylphosphate (pNPP) as substrate, the reaction was stopped by addition of 2× reaction volume of 1 M NaOH, and absorbance was measured at 405 nm. IC50 values of compounds disclosed herein were determined from plots of inhibitor concentration versus percentage of enzyme activity. For inhibitor selectivity assays, each PTP was incubated with either 0.4 mM OMFP or 5 mM pNPP in the presence of 40 μM compound or DMSO. […] For the inhibitor reversibility assay, 50 nM human LMPTP-A was pre-incubated with 10 μM of compound disclosed herein or DMSO for 5 min. The enzyme was diluted 100× in phosphatase assay buffer containing 0.4 mM OMFP and fluorescence was measured at the indicated time points.
The compound `Cc1ccccc1-c1nc2c(N)ncn(Cc3c(Br)cnn3C)c-2n1` [3-[(4-bromo-1-methylpyrazol-5-yl)methyl]-8-(2-methylphenyl)-3-hydropurine-6-ylamine] registered an IC50 of less than 1000 nM.

`Cn1ncc(Br)c1Cn1cnc(N)c2nc(-c3ccccc3)nc1-2` [3-[(4-bromo-1-methylpyrazol-5-yl)methyl]-8-phenyl-3-hydropurine-6-ylamine]: the IC50 was less than 1000 nM.

Take `Cc1ccccc1-c1nc2c(N)ncn(Cc3c(Br)ccnc3Cl)c-2n1` [3-[(4-bromo-2-chloro(3-pyridyl))methyl]-8-(2-methylphenyl)-3-hydropurine-6-ylamine]: the IC50 was less than 1000 nM.

The compound `Nc1ncn(Cc2c(Br)ccnc2Cl)c2nc(-c3ccccc3)nc1-2` [3-[(4-bromo-2-chloro(3-pyridyl))methyl]-8-phenyl-3-hydropurine-6-ylamine] registered an IC50 of less than 1000 nM.

Regarding `Cc1ccccc1-c1nc2c(N)ncn(Cc3c(Cl)ccnc3F)c-2n1` [3-[(4-chloro-2-fluoro(3-pyridyl))methyl]-8-(2-methylphenyl)-3-hydropurine-6-ylamine], the IC50 is less than 1000 nM.

`Nc1ncn(Cc2c(Cl)ccnc2F)c2nc(-c3ccccc3)nc1-2` [3-[(4-chloro-2-fluoro(3-pyridyl))methyl]-8-phenyl-3-hydropurine-6-ylamine] returned an IC50 of less than 1000 nM.

`COc1nccc(I)c1Cn1cnc(N)c2nc(-c3ccccc3)nc1-2` [3-[(4-iodo-2-methoxy(3-pyridyl))methyl]-8-phenyl-3-hydropurine-6-ylamine] yielded an IC50 of less than 1000 nM.

For the compound `Cc1ccccc1-c1nc2c(N)ncn(Cc3scnc3C)c-2n1` [3-[(4-methyl(1,3-thiazol-5-yl))methyl]-8-(2-methylphenyl)-3-hydropurine-6-ylamine], the IC50 was less than 1000 nM.

`Cc1ncsc1Cn1cnc(N)c2nc(-c3ccccc3)nc1-2` [3-[(4-methyl(1,3-thiazol-5-yl))methyl]-8-phenyl-3-hydropurine-6-ylamine]: the half-maximal inhibitory concentration (IC50) lay in the range of 1000 to 20000 nM.

As for `Cc1ccccc1-c1nc2c(N)ncn(Cc3cncc(Cl)c3)c-2n1` [3-[(5-chloro(3-pyridyl))methyl]-8-(2-methylphenyl)-3-hydropurine-6-ylamine], the IC50 was less than 1000 nM.

`COc1cccc(OC)c1-c1nc2c(N)ncn(Cc3c(Cl)cnc(Cl)c3Cl)c-2n1` [8-(2,6-dimethoxyphenyl)-3-[(2,3,5-trichloro(4-pyridyl))methyl]-3-hydropurine-6-ylamine]: the IC50 was less than 1000 nM.

`COc1cccc(OC)c1-c1nc2c(N)ncn(Cc3c(Cl)ncc(Cl)c3Cl)c-2n1` [8-(2,6-dimethoxyphenyl)-3-[(2,4,5-trichloro(3-pyridyl))methyl]-3-hydropurine-6-ylamine] showed an IC50 of less than 1000 nM.

`Cc1ccccc1-c1nc2c(N)ncn(Cc3c(Cl)cnc(Cl)c3Cl)c-2n1` [8-(2-methylphenyl)-3-[(2,3,5-trichloro(4-pyridyl))methyl]-3-hydropurine-6-ylamine] came in with an IC50 of less than 1000 nM.

For `Nc1ncn(Cc2c(Cl)cncc2Cl)c2nc(-c3ccc4c(c3)OCO4)nc1-2` [8-(2H-benzo[d]1,3-dioxolen-5-yl)-3-[(3,5-dichloro(4-pyridyl))methyl]-3-hydropurine-6-ylamine], the IC50 was less than 1000 nM.

As for `Nc1ccncc1-c1nc2c(N)ncn(Cc3c(Cl)cncc3Cl)c-2n1` [8-(4-amino(3-pyridyl))-3-[(3,5-dichloro(4-pyridyl))methyl]-3-hydropurine-6-ylamine], the IC50 fell in the range of 1000 to 20000 nM.

As for `Nc1ncn(Cc2c(Cl)ccnc2Cl)c2nc(C3C4CC5CC(C4)CC3C5)nc1-2` (stereo not drawn) [8-adamantan-2-yl-3-[(2,4-dichloro(3-pyridyl))methyl]-3-hydropurine-6-ylamine], the IC50 is less than 1000 nM.

`Nc1ncn(Cc2c(Cl)cncc2Cl)c2nc(C3C4CC5CC(C4)CC3C5)nc1-2` (stereo not drawn) [8-adamantan-2-yl-3-[(3,5-dichloro(4-pyridyl))methyl]-3-hydropurine-6-ylamine] gave an IC50 of less than 1000 nM.

The compound `Nc1ncn(Cc2c(Cl)cncc2Cl)c2nc(-c3nc4ccccc4[nH]3)nc1-2` [8-benzimidazol-2-yl-3-[(3,5-dichloro(4-pyridyl))methyl]-3-hydropurine-6-ylamine] registered an IC50 of less than 1000 nM.

In the case of `Nc1ncn(Cc2c(Cl)cncc2Cl)c2nc(-c3ccc4[nH]cnc4c3)nc1-2` [8-benzimidazol-5-yl-3-[(3,5-dichloro(4-pyridyl))methyl]-3-hydropurine-6-ylamine], the IC50 is less than 1000 nM.

`Nc1ncn(Cc2c(Cl)cncc2Cl)c2nc(-c3ccc4ccoc4c3)nc1-2` [8-benzo[3,4-b]furan-6-yl-3-[(3,5-dichloro(4-pyridyl))methyl]-3-hydropurine-6-ylamine] came in with an IC50 of less than 1000 nM.

Regarding `Nc1ncn(Cc2c(Cl)cncc2Cl)c2nc(-c3ccc4occc4c3)nc1-2` [8-benzo[b]furan-5-yl-3-[(3,5-dichloro(4-pyridyl))methyl]-3-hydropurine-6-ylamine], the IC50 was less than 1000 nM.

The compound `Nc1ncn(Cc2c(Cl)cncc2Cl)c2nc(-c3ccc4sccc4c3)nc1-2` [8-benzo[b]thiophen-5-yl-3-[(3,5-dichloro(4-pyridyl))methyl]-3-hydropurine-6-ylamine] registered an IC50 of less than 1000 nM.

`Nc1ncn(Cc2c(Cl)ccnc2Cl)c2nc(-c3ccc4ncsc4c3)nc1-2` [8-benzothiazol-6-yl-3-[(2,4-dichloro(3-pyridyl))methyl]-3-hydropurine-6-ylamine]: the 50% inhibitory concentration (IC50) is less than 1000 nM.

Regarding `CCN(CC)Cc1nc2c(N)ncn(Cc3c(Cl)cncc3Cl)c-2n1` [({6-amino-3-[(3,5-dichloro(4-pyridyl))methyl](3-hydropurin-8-yl)}methyl)diethylamine], the IC50 was 1000 to 20000 nM.

These data come from patent publication US20230102520A1, “INHIBITORS OF LOW MOLECULAR WEIGHT PROTEIN TYROSINE PHOSPHATASE (LMPTP) AND USES THEREOF” (Sanford Burnham Prebys Medical Discovery Institute, priority 2019, published 2023).
